Where a name gives a salt, the structure may show the parent alone.
Key:
[1] = in vivo; cited from earlier work
[2] = prediction results published in the literature; cited from earlier work
[3] = Reactivity (% depletion) of nucleophilic reagent Compound 1 with test substance, HPLC; skin sensitization prediction; settings: for reactivity of Compound 1 in comparison with NAC and NAL in ADRA / reactivity of Compound 1 in comparison with NAC-amide / reactivity of Compound 1 in comparison with the cysteine peptide and the lysine peptide in DPRA / reactivity of Compound 1 in comparison with GSH-NBD: FIG. 3, FIG. 4; for reactivity of Compound 1 with the substance: in words
[4] = prediction results published in the literature; cited from earlier work; remark: listed apart in the source
[5] = DPRA (direct peptide reactivity assay); settings: in words
Source text: For example, [Gerberick, G. F., Vassallo, J. D., Bailey, R. E., Chaney, J. G., Morrall, S. W., and Lepoittevin, J. P. (2004). Development of a peptide reactivity assay for screening contact allergens. Toxicological Sciences, 81 (2), pp. 332-343] and [Gerberick, G. F., Vassallo, J. D., Foertsch, L. M., Price, B. B., Chaney, J. G., and Lepoittevin, J. P. (2007). Quantification of chemical peptide reactivity for screening contact allergens: a classification tree model approach. Toxicological Sciences, 97 (2), pp. 417-427] describe a method using two types of peptides (a cysteine peptide and a lysine peptide) as nucleophilic reagents. In addition, JP2011-59102A and JP2014-37995A describe a reagent for measuring skin sensitization and a method for measuring skin sensitization, using a cysteine derivative into which an aryl ring has been introduced and a lysine derivative into which an aryl ring has been introduced as nucleophilic reagents (also referred to as ADRA).
Natsch A. and Gfeller H. (2008). […] Quantification of chemical peptide reactivity for screening contact allergens: a classification tree model approach. […]
One type of nucleophilic reagent (Compound 1) was evaluated. In addition, the following compounds were also evaluated in the same manner as controls for comparison of the reactivity to the fifteen types of evaluation substances. • Cys peptide • Lys peptide

[6] = Stability of nucleophilic reagent (residual ratio, HPLC-UV); format: physicochemical
Procedure: Immediately after preparation of the reaction solution (0 hours) and after incubation of the reaction solution at 25° C. for 24 hours (24 hours), the reaction solution is measured by HPLC-UV. At this time, since the nucleophilic reagent and the oxidized form and modified form of the nucleophilic reagent can be confirmed on HPLC, the residual ratio of the nucleophilic reagent is calculated based on the following equation.
Residual ratio (%) of nucleophilic reagent=area value of nucleophilic reagent/(area value of nucleophilic reagent+area value of oxidized form of nucleophilic reagent+area value of modified form of nucleophilic reagent)×100

| residual ratio of nucleophilic reagent ([6]; after 24 hours, 25° C.) [%] | residual ratio of nucleophilic reagent ([6]; immediately after solution preparation (0 hours)) [%] | SMILES | Category of LLNA sensitization [1] | DPRA prediction [2] | reactivity of Compound 1 in comparison with NAC and NAL in ADRA [3] | reactivity of Compound 1 in comparison with NAC-amide [3] | reactivity of Compound 1 in comparison with the cysteine peptide and the lysine peptide in DPRA [3] | ADRA prediction [4] | reactivity of Compound 1 in comparison with GSH-NBD [3] | reactivity with the cysteine peptide in DPRA [5] | reactivity of Compound 1 with the substance [3] | depletion of Compound 1 ([3]; pH 7.4) [%] | depletion of Compound 1 ([3]; pH 8.0) [%] |
| --- | --- | --- | --- | --- | --- | --- | --- | --- | --- | --- | --- | --- | --- |
|  |  | CCOC(=O)CC(=O)c1ccccc1 [Ethyl benzoylacetate] | None | Negative | same level of reactivity | same level of reactivity | same level of reactivity | Negative |  |  |  |  |  |
|  |  | CCCCCCCCC(=O)Cl [Nonanoyl chloride] | Moderate |  | higher reactivity | same level of reactivity | higher reactivity | Positive | GSH-NBD showed higher reactivity |  |  |  |  |
|  |  | CCC=C1OC(=O)c2ccccc21 [3-Propylidene phthalide] | Moderate | Positive | same level of reactivity | same level of reactivity | lower reactivity |  |  |  |  |  |  |
|  |  | O=c1c(-c2ccccc2)c1-c1ccccc1 [Diphenylcyclopropenone] |  | Positive | higher reactivity | same level of reactivity | same level of reactivity | Positive |  |  |  |  |  |
|  |  | CCCCCCI [Compound 1-Iodohexane, 1-Iodohexane] | None |  | same level of reactivity | same level of reactivity |  | Negative |  | reactive | no reactivity |  |  |
|  |  | CCOS(=O)(=O)OCC [Diethyl sulfate] |  | Positive |  |  |  |  |  |  |  |  |  |
|  |  | CCCCCC(C=O)=Cc1ccccc1 [α-Pentyl cinnamaldehyde] | Weak |  | higher reactivity | higher reactivity | higher reactivity |  | higher reactivity |  |  |  |  |
|  |  | COc1ccc(C(C)=O)cc1 [4′-Methoxyacetophenone] | None | Negative | same level of reactivity | same level of reactivity | same level of reactivity | Negative |  |  |  |  |  |
|  |  | COC(=O)C(C)=O [Methyl pyruvate] | Moderate |  | higher reactivity | higher reactivity | higher reactivity |  | higher reactivity |  |  |  |  |
|  |  | O=c1cccccc1O [Tropolone] | Moderate | Positive | higher reactivity | same level of reactivity | lower reactivity |  |  |  |  |  |  |
| ≥ 85 | ≥ 90 | NNC(=O)[C@H](CS)NC(=O)Cc1cccc2ccccc12 [Compound 1] |  |  |  |  |  |  |  |  |  |  |  |
|  |  | CCCCBr [1-Bromobutane] |  |  | same level of reactivity | same level of reactivity |  | Negative |  | reactive | no reactivity |  |  |
|  |  | O=C(O)c1ccc2c(c1)C(=O)OC2=O [Trimellitic anhydride] | Strong | Positive | NAL showed higher reactivity than Compound 1 | higher reactivity | same level of reactivity | Positive | GSH-NBD showed higher reactivity |  |  | 41.0 | 37.2 |
|  |  | O=C(Oc1ccccc1)c1ccccc1 [Phenyl benzoate] | Weak | Positive | higher reactivity | same level of reactivity | lower reactivity |  |  |  |  |  |  |
|  |  | CC(C=O)Cc1ccc(C(C)C)cc1 (centres unmarked) [Cyclamen aldehyde] | Weak | Positive | higher reactivity | higher reactivity | higher reactivity |  | higher reactivity |  |  |  |  |
